Paper PMC9905731, “PIN1 and PIN4 inhibition via parvulin impeders Juglone, PiB, ATRA, 6,7,4′-THIF, KPT6566, and EGCG thwarted hepatitis B virus replication” (Frontiers in Microbiology, 2023)

Tested on: HBV-infected HepG2-hNTCP-C9 cells
Assay: HBV replication in HBV-infected HepG2-hNTCP-C9 cells
Type: cell-based, hepatitis B virus
Conditions: 9 days; 20 μM Juglone or PiB, 30 μM ATRA, 6,7,4′-THIF or KPT6566, 40 μM EGCG; vs solvent
Description: Figure 9 PIN1 and PIN4 Inhibition via Juglone, PiB, ATRA, 6,7,4′-THIF, KPT6566, and EGCG abrogate HBV replication in HBV-infected cells. […] HepG2-hNTCP-C9 cells were seeded and infected, as described previously, in the “Material and Methods” section. Infected cells (lanes 2–3) were treated with solvent (lane 2) or 20 μM Juglone, 20 μM PiB, 30 μM ATRA, 30 μM 6,7,4′-THIF, 30 μM KPT6566, 40 μM EGCG (lane 3) for 9 days, and lysates were subjected to SDS-PAGE and immunoblotting, NAGE, Northern blotting, and Southern blotting. The shown data are representation from three independent experiments. The statistical significance was determined by using Student’s t-test. *p < 0.05, **p < 0.005, ***p < 0.0005 relative to the corresponding control.
HBV inoculum was harvested from HepAD38 cells for infection experiments. HepAD38 cells in DMEM plus 10% FBS, 1% PS, G418 (0.5 mg/ml), insulin (5 μg/ml), and hydrocortisone hemisuccinate (50 μM) were grown, and on every third day after passage of day 10th (till 31st), the media supernatants were collected and concentrated via 20 to 60% sucrose gradient by ultra-centrifugation (Beckman Coulter Optima L-90 K) method, as described previously ([Saeed et al., 2019], [2021]). The HBV DNAs from the pelleted precipitant were examined by Southern blotting. […] The following day, the cell media was refreshed after PBS washing and maintained in 2.5% DMSO containing media. On the 9th day post-infection, the cellular lysates were prepared and subjected to SDS-PAGE and immunoblotting, core particle immunoblotting, and Southern blot analysis. At 5 days post-infection, HBV RNA levels were determined by Northern blotting.
Juglone (Sigma Aldrich, AG17724), PiB (Calbiochem, CAS 64005–90-9), ATRA (Sigma-Aldrich, R2625), 6,7,4′-THIF (Chem Faces, CFN90796), KPT6566 (ProbeChem, PC-61182), or EGCG (Sigma Aldrich, 989–51-5) was treated to Huh7, HepAD38, HepG2, HepG2.2.15, and HepG2-hNTCP-C9 cells. Prior to the conduct of experiments, the cytotoxic effects of Juglone, PiB, ATRA, 6,7,4′-THIF, KPT6566, or EGCG were examined via MTT assay (3-[4,5-dimethylththiazol-2-yl]-2,5-diphenyltetrazolium bromide), as described previously ([Bichko et al., 1985]; [Piracha et al., 2018], [2020]; [Saeed et al., 2019], [2021]). Briefly, selected HCC cell lines (HepG2, Huh7, HepG2.2.15, and HepAD38) in 6 cm plates were treated with Juglone (20 μM), PiB (20 μM), ATRA (30 μM), 6,7,4′-THIF (30 μM), KPT6566 (30 μM), or EGCG (40 μM) at transfection or at the time of TC removal from HepAD38 cells. Juglone (20 μM in ethanol, Sigma Aldrich, AG17724) was treated to 1.3 mer HBV-WT transfected Huh7 cells (Figure 3A) or TC-depleted HepAD38 cells (Figure 3B) or to 1.3 mer HBV-WT transfected HepG2 (Figure 3C) or HepG2.2.15 (Figure 3D) cells for 72 h. PiB (20 μM in DMSO, Calbiochem, CAS 64005-90-9) was treated for 72 h to 1.3 mer HBV-WT transfected Huh7 cells (Figure 4A) or TC-depleted HepAD38 cells (Figure 4B) or to 1.3 mer HBV-WT transfected HepG2 cells (Figure 4C) or HepG2.2.15 (Figure 4D) cells. To examine the effects on HBV replication, ATRA (30 μM in DMSO, R2625 Sigma-Aldrich) was treated for 72 h to 1.3 mer HBV-WT transfected Huh7 cells (Figure 5A) or TC-depleted HepAD38 cells (Figure 5) or to 1.3 mer HBV-WT transfected HepG2 cells (Figure 5C) or HBV replicating HepG2.2.15 (Figure 5D) cells. 6,7,4′-THIF (30 μM in DMSO, CFN90796 Chem Faces) was treated for 72 h to 1.3 mer HBV-WT transfected Huh7 cells (Figure 6A) or TC-depleted HepAD38 cells (Figure 6B) or to 1.3 mer HBV-WT transfected HepG2 cells (Figure 6C) or HBV replicating HepG2.2.15 (Figure 6D) cells. KPT-6566 (30 μM in DMSO, PC-61182 ProbeChem) was treated for 72 h to 1.3 mer HBV-WT transfected Huh7 cells (Figure 7A) or TC-depleted HepAD38 cells (Figure 7B) or to 1.3 mer HBV-WT transfected HepG2 cells (Figure 7C) or HBV replicating HepG2.2.15 (Figure 7D) cells. […]

Row | Compound | HBV replication in infected cells (HBc, HBV transcripts, core particles, HBV DNA)
1 | CCOC(=O)CN1C(=O)c2ccc3c4c(ccc(c24)C1=O)C(=O)N(CC(=O)OCC)C3=O [PiB, 1,3,6,8-tetrahydro-1,3,6,8-tetraoxo-benzo [lmn][3,8] phenanthroline-2,7-diacetic acid, 2,7-diethyl ester] | restricted HBV replication
2 | O=C(O[C@@H]1Cc2c(O)cc(O)cc2O[C@@H]1c1cc(O)c(O)c(O)c1)c1cc(O)c(O)c(O)c1 [EGCG, Epigallocatechin gallate] | restricted HBV replication
3 | O=C1C=CC(=O)c2c(O)cccc21 [Juglone, 5-hydroxyl-1,4-naphthoquinone] | restricted HBV replication
4 | CC(C)(C)c1ccc(S(=O)(=O)N=C2C=C(SCC(=O)O)C(=O)c3ccccc32)cc1 [KPT6566, 2-[[4-[[[4-(1,1-dimethylethyl)phenyl]sulfonyl]imino]-1,4-dihydro-1-oxo-2-naphthalenyl]thio] acetic acid] | restricted HBV replication
5 | CC1=C(/C=C/C(C)=C/C=C/C(C)=C/C(=O)O)C(C)(C)CCC1 [ATRA, All-trans-retinoic acid] | restricted HBV replication
6 | O=c1c(-c2ccc(O)cc2)coc2cc(O)c(O)cc12 [6,7,4′-THIF, 6,7-dihydroxy-3-(4-hydroxyphenyl)-4H-chromen-4-one] | restricted HBV replication
